Results taken from patent publication US20100203634A1, “Inhibition of stem cell differentiation, enhancement of proliferation and selective induction of apoptosis by Wnt factors” (DeltaCell B.V., priority 2003, published 2010).
Entries after “also recorded” stand apart in the source; their conditions may differ.

Experiments:
[1] = test system: fetal lung explants; test: Fetal murine lung explant culture (hanging drop), stereomicroscopy and H/E histology of differentiation; assay type: cell-based, mouse
Source text: To provide proof of evidence, an in vitro explant lung culture (obtained from a mouse) is used. Generation of new alveolar tissue in patients is stimulated by activation or re-activation of alveolar bud formation. Growth and branching of alveolar buds, followed by transformation into alveolar ducts, sacs and pouches, results in the establishment of pulmonary acini.
As a proof of evidence, it is, therefore, shown that treatment with selected molecules involved in a Wnt pathway inhibits the differentiation process of alveolar differentiation. Inhibition of this differentiation process is achieved by applying a purified Wnt3a polypeptide to an in vitro lung explant culture of 13-day-old (E13) mouse embryos.
The (fetal) murine lung explant culture was generated according to our standard protocol. Briefly, complete lungs or individually dissected lung lobes were isolated from fetal mice and cultured for one to five days in a hanging drop culture system. The Wnt3a polypeptide was administered to the culture medium in different concentrations, ranging from 0 to 4000 ng/ml. The effect of this treatment was monitored by stereomicroscopy. The lung explant cultures were subsequently fixed for 30 minutes in 10% paraformaldehyde (PFA), 30 minutes in 2% PFA and 30 minutes in 4% PFA. After fixation, the lung explants were dehydrated through an increasing series of 2-isopropanol and subsequently embedded in paraffin. For the histological analysis, 4 μm thick sections were cut and stained with Hematoxilin and Eosin using standard techniques.
As a source for Wnt3a, recombinant mouse Wnt3a from R&D Systems (catalog nr. 1324-WN, R&D Systems, Inc. Minneapolis USA) was used. As culture medium, DMEM/HAM's F12 (1:1) from Biochrom AG, catalog nr. FG 4815, was used.

[2] = test system: mesenchyme and epithelium of fetal lung explants; test: PCNA immunohistochemistry (proliferation) on lung explants; assay type: cell-based, mouse
Protocol: Detection of the PCNA epitopes was carried out by treating the sections with di-aminobenzidine (DAB) for 15 minutes.
The antibody against PCNA was purchased from Zymed Laboratories Inc. (cat nr. 18-0110). The secondary conjugate used was from Jackson Laboratories, Inc. (catalog nr. 115-056-062).

[3] = test system: mesenchyme and epithelium of fetal lung explants; test: BrdU incorporation immunostaining on lung explants; assay type: cell-based, mouse; conditions: four days
Protocol: (§1) The primary antibodies used for the immunohistochemical detection was for beta-catenin; anti beta-catenin IgG, mAb, clone 14 from BD-Transduction Laboratories, for tubulin-beta mAb clone TBN05 (Tub2.1) from Neomarkers, for BrdU; anti-Bromodeoxyuridine (BrdU), mAb clone ZBU30 from Zymed Laboratories Inc.
To further analyze the effect of Wnt3a upon apoptosis and proliferation, lung explants were cultured for four days in the presence of 0, 4, 20, 100, 250, 500, 750 and 1000 ng/ml. In order to identify whether after Wnt3A treatment cells are viable and active, proliferating BrdU was added to the culture medium, which is incorporated in newly synthesized DNA of active proliferating cells, two hours before the fixation of the lung explants. […] To better investigate this effect, histological sections were analyzed with the TUNEL assay, which detects fragmented DNA present in apoptotic cells (material and methods).
In order to identify whether the epithelial cells were still actively proliferating after four days of Wnt3a treatment, the histological sections were immunostained for incorporated BrdU (FIG. 6).

[4] = test system: fetal lung explants (E12.5); test: Eight-day fetal lung explant culture, histology and tubulin-IV immunostaining (final lung differentiation); assay type: cell-based, mouse
Protocol: FIG. 7: The effect of Wnt3A on the final lung differentiation. The lung explants were cultured for eight days in the presence of 0 ng/ml (Panels A and B), 10 ng/ml (Panel C), 50 ng/ml (Panel D), 250 ng/ml (Panel E) and 500 ng/ml Wnt3A (Panel F). After embedding, histological sections were stained with a tubulin-IV antibody to mark ciliated bronchial epithelium. In addition, the sections were counterstained with Haematoxylin and Alcian Blue, which stained the mucus secreted from the bronchial epithelium and the cartilage associated with the tracheal epithelium.
as §1
To further determine the effect of Wnt3A upon the development and differentiation of the lung over time, fetal lung explants of isolated E12.5 were cultured with 0, 10, 50, 250, and 500 ng/ml Wnt3A for eight days. Two hours before the fixation of the lung explants, BrdU was added to the culture medium, which is incorporated in newly synthesized DNA of active proliferating cells. After the different time points, the lung explants were processed for histological analysis and immuno staining of marker genes.

[5] = test system: Wnt-signaling pathway in human epithelial lung carcinoma cell line A549; test: TopFlash/FopFlash reporter assay, A549; assay type: cell-based; conditions: A549, 20 hours
Protocol: (§2) Primary mouse fibroblasts isolated from E12.5 lung explants, the human epithelial lung carcinoma cell line A549 cells (ATCC CCL-185), the human epithelial lung adenocarcinoma cell line Calu-3 (ATCC_HTB-55) and the normal human fetal lung fibroblast cell line HFL-1 cells (ATCC—153) were cultured in 96-well plates and transfected with the TopFlash and FopFlash reporter constructs using lipofectamine 2000 according to the manufacturer's instructions. As an internal control for transfection efficiency, a constitutive renilla luciferase reporter (Promega) was cotransfected. The cells were transfected with the above-mentioned reporter constructs and simultaneously treated with different concentrations of Wnt3A for 20 hours, after which the cells were lysed and luciferase expression was measured using a Berthold luminometer for two seconds (V. Korinek et al., Mol. Cell. Biol. 18:1248-1256, 1998). […]
(§3) In order to analyze if Wnt3A is able to activate the Wnt signal-transduction pathway in humans, we stimulated three different cell lines from human origin with Wnt3A and measured the response with the TopFlash/FopFlash reporter assay. The three human lung-derived cell lines analyzed were the lung epithelial carcinoma cell line A549 (FIG. 9B), the normal lung fibroblast line HFL-1 (FIG. 9C), and the epithelial adenocarcinoma cell line calu-3 (FIG. 9D).

[6] = test system: Wnt-signaling pathway in human epithelial lung adenocarcinoma cell line Calu-3; test: TopFlash/FopFlash reporter assay, Calu-3; assay type: cell-based; conditions: calu-3, 20 hours
Protocol: as §2, §3

Substance: Wnt3a
- differentiation of the epithelium ([1]; 500 ng/ml, four days): delayed; also recorded: undifferentiated character of the epithelium
- differentiation of the primordial lung epithelium (histology) ([1]; 1000 ng/ml, five-day-old cultures): arrested at a stage comparable to that of the start of the culture (E13); also recorded: strong inhibitory effect on the development and differentiation of the fetal lung; also recorded: arrest of alveolar differentiation
- effect on cell viability ([1]; 2000 ng/ml): affects the viability of all cells
- effect on lung development (stereomicroscopy) ([1]; 2000 ng/ml and 4000 ng/ml, after one day): deleterious effect on lung development
- complete block of differentiation of fetal lung development ([1]; 4, 20, 100 and 500 ng/ml, four days): None of these concentrations was effective in completely blocking the differentiation
- lung differentiation (stereomicroscopy) ([1]; E13 lung explants, 1000 ng/ml, after 16 hours): total block of lung differentiation
- differentiation and alveolar development (stereomicroscopy) ([1]; E13 lung explants, 1000 ng/ml, five days culture): no significant differentiation and alveolar development could be observed
- effects at the level of apoptosis and differentiation compared to control ([1]; between 4 and 20 ng/ml, four days): no clear effects were visible
- concentration at which differentiation was strongly retarded with many picnotic cells ([1]; histological examination at day 4): above 100 ng/ml
- concentration that does not show clear morphological changes ([1]; lung explants): below 1 ng/ml
- PCNA staining in the bronchial epithelium ([2]; 500 ng/ml, two days): marked overall increase in the intensity and frequency of PCNA staining; also recorded: elevated PCNA staining
- PCNA staining (proliferation) of epithelium and mesenchyme ([2]; 1000 ng/ml, five days): the epithelium was still proliferating whereas most of the mesenchymal cells were inactive or dead; also recorded: strong reduction in proliferation of the mesenchyme versus the epithelium
- PCNA staining ([2]; 1000 ng/ml, two days): reduces the PCNA staining below the control situation
- PCNA staining ([2]; 2000 and 4000 ng/ml, two days): completely negative
- concentration at which proliferation is absent / inhibited ([2]; lung explants): above 2000 ng/ml
- BrdU-positive (active proliferating) cells ([3]; 500 ng/ml and lower): both the mesenchyme and epithelium contained many BrdU-positive
- BrdU-positive (active proliferating) cells ([3]; 750 ng/ml): intermediate effect
- BrdU-positive (active proliferating) cells ([3]; 1000 ng/ml): almost all BrdU-positive cells were present in the epithelium
- effect on lung development (morphology) ([4]; 10 ng/ml, up to eight days): profound effects on lung development
- flattening of the primordial epithelium to the type-I cell ([4]; 250 ng/ml, eight days): almost completely suppressed
- branching ([4]; 500 ng/ml, after one day): inhibitory effect upon branching
- branching ([4]; 500 ng/ml, eight days): still severely suppressed
- differentiation of distal epithelium (alveolar and bronchiolar compartments) ([4]; 500 ng/ml, eight days): completely inhibited
- proximal structures (tubulin-IV, Haematoxylin and Alcian Blue) ([4]; 500 ng/ml, eight days): consist completely of proximal structures; also recorded: abundance of bronchial epithelium, mucus and cartilage
- alveolarization of the distal epithelium / flattened epithelium (alveolar-type-I cells) ([4]; 10 to 250 ng/ml (to 500 ng/ml in FIG. 7), eight days): decreasing alveolarization of the distal epithelium; also recorded: loss of flattened epithelium (alveolar-type-I cells) with increasing dosage
- TopFlash/FopFlash reporter response [5]: respond to Wnt3A in a dosage-dependent manner; also recorded: strong induction of the Wnt-signaling pathway
- TopFlash/FopFlash reporter response [6]: respond to Wnt3A in a dosage-dependent manner; also recorded: strong induction of the Wnt-signaling pathway
